Source: PubChem BioAssay (NCI)
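Exposure lasted 48 hours, with cells grown in 96-well plates and compounds tested at five concentrations. The concentration for 50% growth inhibition is given as GI50. TGI denotes the concentration required for complete inhibition of growth.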

Tests used:
Assay in all cases: DTP human tumour cell line panel, 48 h
[1] = system: SNB-19 CNS
[2] = system: T-47D breast
[3] = system: BT-549 breast
[4] = system: KM20L2 colon
[5] = system: M19-MEL melanoma
[6] = system: MCF7 breast
[7] = system: SNB-78 CNS
[8] = system: MDA-MB-435
[9] = system: MDA-MB-231 breast
[10] = system: DMS 273 small cell lung

Row | SMILES | TGI [1] [µM] | TGI [2] [µM] | TGI [3] [µM] | TGI [4] [µM] | TGI [5] [µM] | TGI [6] [µM] | TGI [7] [µM] | TGI [8] [µM] | TGI [9] [µM] | TGI [10] [µM] | GI50 [1] [µM] | GI50 [4] [µM] | GI50 [5] [µM] | GI50 [7] [µM] | GI50 [10] [µM]
1 | COc1ccc(N2C(=O)[C@H]3CC(C)c4c([nH]c5ccccc45)[C@H]3C2=O)cc1 (stereo not given in full) | > 71.8 | 68.8 | > 80.7 | 12.7 | 55.5 | > 100 | > 59.5 | 2.3 | > 54.8 | 17.2 |  |  |  |  | 
2 | CC[O-].CC[O-].O=S(=O)([O-])c1ccc([O-])c2ncccc12.O=S(=O)([O-])c1ccc([O-])c2ncccc12.[Ti+4] | > 100 |  |  | > 100 | > 100 |  | > 100 |  |  | > 100 | 58.3 | 39.7 | > 100 | > 100 | 78.1
3 | COC(=O)[C@]12CCC(C)[C@H](C)[C@H]1C1=CCC3[C@@]4(C)CC[C@H](OC(C)=O)C(C)(C)C4CC[C@@]3(C)C1(C)C(O)C2 (stereo not given in full) | > 100 |  |  | > 100 | > 100 |  | > 100 |  |  | > 100 |  |  |  |  | 
4 | OC1(c2ccccc2)OC(C#Cc2ccccc2)(c2ccccc2)c2ccccc21 (stereo not given) | 26.3 |  |  | 13.6 | 11.1 |  | 23.2 |  |  | 12.1 |  |  |  |  | 
5 | Cc1cc(C)c(C(=O)c2no[n+]([O-])c2C(=O)c2c(C)cc(C)c(Br)c2C)c(C)c1Br | 29.1 |  |  | 32.9 | 25.7 |  | 70.8 |  |  | 45.1 |  |  |  |  | 
6 | COc1ccc(/C=C2\CCCC(C(NO)c3ccc(OC)cc3)C2=NO)cc1 (stereo not given) | > 100 |  |  | > 100 | > 100 |  | > 100 |  |  | > 100 |  |  |  |  | 
7 | COC1C2C=CC(C2)[C@H]1[N+](=O)[O-] (stereo not given in full) | > 100 |  |  | > 100 | > 100 |  | > 100 |  |  | > 100 |  |  |  |  | 
8 | CC1=C(C(=O)Nc2cccc(Cl)c2)C(c2ccccc2F)C(C(=O)Nc2cccc(Cl)c2)=C(C)N1 | > 100 |  |  | 24.3 | 26.4 |  | 60.9 |  |  | 26.4 |  |  |  |  | 
9 | COC(=O)C(CC(=O)Nc1ccc(C)cc1)C(=O)C(=O)Nc1ccccc1C(C)C (stereo not given) | > 100 |  |  | > 100 | > 100 |  | > 100 |  |  | > 100 |  |  |  |  | 
10 | CC(=O)OCC(OC(C)=O)C(OC(C)=O)C(OC(C)=O)C(=O)CNn1c(-c2ccccc2Cl)nc2ccccc2c1=O (stereo not given) | > 100 |  |  | > 100 | > 100 |  | > 100 |  |  | > 100 |  |  |  |  | 
11 | Cc1ccccc1C1=C(C(=O)Nc2ccc(Cl)c(Cl)c2)NC(=S)NC1N (stereo not given) | > 100 |  |  | > 100 | > 100 |  | > 100 |  |  | > 100 |  |  |  |  | 
